In patent US11161839B2, “2-quinolone derived inhibitors of BCL6” (Cancer Research Technology Limited, priority 2017, dated 2021):

Legend:
[1] = biological target: human BCL6 BTB domain (Trx-6xHis-BCL6) (Homo sapiens (Human), UniProt P41182); experiment: HTRF in vitro assay (BCL6 BTB domain / BCOR-AF633 peptide); format: binding; details: for IC50: read-out: HTRF pIC50 (converted)
[2] = biological target: BCL6-NCOR2(SMRT) corepressor protein-protein interaction (Homo sapiens (Human), UniProt P41182); experiment: NanoBRET cell assay in transfected HEK293T cells; format: cell-based; details: further generated data (Table 2b); HEK293T cells, 6 hr; read-out: NanoBRET cell pIC50 (converted)
[3] = further generated data (Table 1b), 1 nM Trx-6xHis-BCL6, 0.5 nM anti-6xHis-Terbium cryptate
[4] = initially generated data (Table 1a), 10 nM Trx-6xHis-BCL6, 1 nM anti-6xHis-Terbium cryptate

SMILES	HTRF pIC50 [1, 3]	IC50 [2] [µM]	IC50 [1, 3] [µM]	HTRF pIC50 [1, 4]
CC(Nc1cc(=O)n(C)c2ccc(Nc3ccnc(Cl)c3C#N)cc12)c1ncc(N2CCOCC2)cn1 (stereo not shown) [Example 10x, 2-chloro-4-((1-methyl-4-((1-(5-morpholinopyrimidin-2-yl)ethyl)amino)-2-oxo-1,2-dihydroquinolin-6-yl)amino)nicotinonitrile]	7.56	1.26		
CC(Nc1cc(=O)n(C)c2ccc(Nc3nc(N4CCC(F)(F)CC4)ncc3Cl)cc12)c1ncccn1 (stereo not shown) [Example 17i, 6-((5-chloro-2-(4,4-difluoropiperidin-1-yl)pyrimidin-4-yl)amino)-1-methyl-4-((1-(pyrimidin-2-yl)ethyl)amino)quinolin-2(1H)-one]	6.20	2.82		
CNC(=O)c1cc(Nc2ccc3c(c2)c(NC(C)(C)c2ncccn2)cc(=O)n3C)c(C#N)c(Cl)n1 [Example 1u, 6-chloro-5-cyano-N-methyl-4-[[1-methyl-4-[(1-methyl-1-pyrimidin-2-yl-ethyl)amino]-2-oxo-6-quinolyl]amino]pyridine-2-carboxamide]	7.51	0.525		7.44
CC(Nc1nc(=O)n(C)c2ccc(Nc3nc(N4CCC(C(=O)N(C)C)CC4)ncc3Cl)cc12)c1ncccn1 (stereo not shown) [Example 12d, 1-(5-chloro-4-((1-methyl-2-oxo-4((1-(pyrimidin-2-yl)ethyl)amino)-1,2-dihydroquinazolin-6-yl)amino)pyrimidin-2-yl)-N,N-dimethylpiperidine-4-carboxamide]	6.78	11.2		
Cn1c(=O)nc(NC(C)(C)c2ncccn2)c2cc(Nc3nc(N4CCC(F)(F)C(CO)C4)ncc3Cl)ccc21 (stereo not shown) [Example 12i, 6-((5-chloro-2-(4,4-difluoro-3-(hydroxymethyl)piperidin-1-yl)pyrimidin-4-yl)amino)-1-methyl-4-((2-(pyrimidin-2-yl)propan-2-yl)amino)quinazolin-2(1H)-one]	7.32			
Cc1nc(C(C)Nc2cc(=O)n(C)c3ccc(Nc4ccnc(Cl)c4C#N)cc23)no1 (stereo not shown) [Example 1h, 2-chloro-4-[[1-methyl-4-[1-(5-methyl-1,2,4-oxadiazol-3-yl)ethylamino]-2-oxo-6-quinolyl]amino]pyridine-3-carbonitrile]	6.38			6.40
CC(Nc1cc(=O)n(CC2CCCCC2)c2ccc(Nc3ccnc(Cl)c3C#N)cc12)c1ncccn1 (stereo not shown) [Example 10v, 2-chloro-4-((1-(cyclohexylmethyl)-2-oxo-4-((1-(pyrimidin-2-yl)ethyl)amino)-1,2-dihydroquinolin-6-yl)amino)nicotinonitrile]	6.17			
CC(Nc1cc(=O)n(C)c2ccc(Nc3ccnc(Cl)c3C#N)cc12)c1cnccn1 (stereo not shown) [Example 1j, 2-chloro-4-[[1-methyl-2-oxo-4-(1-pyrazin-2-ylethylamino)-6-quinolyl]amino]pyridine-3-carbonitrile]	6.29			6.27
COC1CCC1Nc1cc(=O)n(C)c2ccc(Nc3ccnc(Cl)c3C#N)cc12 (racemic) [Example 22b, rac-2-chloro-4-((4-(((1R,2S)-2-methoxycyclobutyl)amino)-1-methyl-2-oxo-1,2-dihydroquinolin-6-yl)amino)nicotinonitrile or rac-2-chloro-4-((4-(((1R,2R)-2-methoxycyclobutyl)amino)-1-methyl-2-oxo-1,2-dihydroquinolin-6-yl)amino)nicotinonitrile]			0.575	
CC(CO)Nc1nc(=O)n(C)c2ccc(Nc3ccnc(Cl)c3C#N)cc12 (stereo not shown) [Example 1l, 2-chloro-4-[[4-[(2-hydroxy-1-methyl-ethyl)amino]-1-methyl-2-oxo-quinazolin-6-yl]amino]pyridine-3-carbonitrile]	5.98			6.18
COc1cc(Nc2ccnc(Cl)c2C#N)cc2c(NC(C)(C)c3ncccn3)cc(=O)n(C)c12 [Example 10r, 2-chloro-4-((8-methoxy-1-methyl-2-oxo-4-((2-(pyrimidin-2-yl)propan-2-yl)amino)-1,2-dihydroquinolin-6-yl)amino)nicotinonitrile]	6.32			
Cn1c(=O)cc(NCCF)c2cc(Nc3cc(C(=O)O)nc(Cl)c3C#N)ccc21 [Example 9c, 6-chloro-5-cyano-4-((4-((2-fluoroethyl)amino)-1-methyl-2-oxo-1,2-dihydroquinolin-6-yl)amino)picolinic acid]	6.05			
CNC(=O)c1cc(Nc2ccc3c(c2)c(NC2CCC2OC)cc(=O)n3C)c(C#N)c(Cl)n1 (racemic) [Example 23b, rac-6-chloro-5-cyano 4-((4-(((1R,2R)-2-methoxycyclobutyl)amino)-1-methyl-2-oxo-1,2-dihydroquinolin-6-yl)amino)-N-methylpicolinamide or rac-6-chloro-5-cyano-4-((4-(((1R,2S)-2-methoxycyclobutyl)amino)-1-methyl-2-oxo-1,2-dihydroquinolin-6-yl)amino)-N-methylpicolinamide]			0.468	
Cn1c(=O)cc(NC2(C)CCCC2)c2cc(Nc3cc(C(=O)O)nc(Cl)c3C#N)ccc21 [Example 2d, 6-chloro-5-cyano-4-[[1-methyl-4-[(1-methylcyclopentyl)amino]-2-oxo-6-quinolyl]amino]pyridine-2-carboxylic acid]	6.65			6.51
C[C@@H](Nc1cc(=O)n(C)c2ccc(Nc3ccnc(Cl)c3C#N)cc12)C(=O)NCCc1cnn(C)c1 [Example 3m, (R)-2-((6-((2-Chloro-3-cyanopyridin-4-yl)amino)-1-methyl-2-oxo-1,2-dihydroquinolin-4-yl)amino)-N-(2-(1-methyl-1H-pyrazol-4-yl)ethyl)propanamide]				6.06
C[C@@H]1C[C@H](C)CN(c2ncc(Cl)c(Nc3ccc4c(c3)c(NC(C)(C)c3ncccn3)nc(=O)n4C)n2)C1 [Example 26g, 6-[[5-chloro-2-[(3R,5S)-3,5-dimethyl-1-piperidyl]pyrimidin-4-yl]amino-1-methyl-4-[(1-methyl-1-pyrimidin-2-yl)ethyl)amino]quinazolin-2-one:formic acid (1:1)]	6.54			
CC(Nc1cc(=O)n(C)c2ccc(Nc3ncnc(Cl)c3C#N)cc12)c1ncccn1 (stereo not shown) [Example 10t, 4-chloro-6-((1-methyl-2-oxo-4-((1-(pyrimidin-2-yl)ethyl)amino)-1,2-dihydroquinolin-6-yl)amino)pyrimidine-5-carbonitrile]	6.22			
CCC(C)(C)Nc1cc(=O)n(C)c2ccc(Nc3cc(C(=O)O)nc(Cl)c3C#N)cc12 [Example 9o, 6-chloro-5-cyano-4-((1-methyl-2-oxo-4-(tert-pentylamino)-1,2-dihydroquinolin-6-yl)amino)picolinic acid]	6.66			

Now from value to molecule:

HTRF pIC50 [1, 3]	IC50 [2] [µM]	IC50 [1, 3] [µM]	HTRF pIC50 [1, 4]	SMILES
6.47	7.24			CC(Nc1cc(=O)n(C)c2ccc(Nc3cc(N4CCC(C(=O)N(C)C)CC4)ncc3Cl)cc12)c1ncccn1 (stereo not shown) [Example 15g, 1-(5-chloro-4-((1-methyl-2-oxo-4-((1-(pyrimidin-2-yl)ethyl)amino)-1,2-dihydroquinolin-6-yl)amino)pyridin-2-y1)-N,N-dimethylpiperidine-4-carboxamide]
6.55	1.29			C[C@@H](Nc1cc(=O)n(C)c2ccc(Nc3ccnc(Cl)c3C#N)cc12)C1CC1 [Example 10n, (R)-2-chloro-4-((4-((1-cyclopropylethyl)amino)-1-methyl-2-oxo-1,2-dihydroquinolin-6-yl)amino)nicotinonitrile]
6.46	2.19			COCCC1CCCN1C(=O)c1cc(Nc2ccc3c(c2)c(N[C@H](C)C2CC2)cc(=O)n3C)c(Cl)cn1 (stereo partly shown) [Example 15b]
	3.31	0.525		COc1cc(Nc2nc(N3CCC(C(=O)N(C)C)CC3)ncc2Cl)cc2c(NC(C)(C)c3ncccn3)cc(=O)n(C)c12 [Example 12c]
6.78	3.39			Cn1c(=O)cc(N[C@H](CO)C2CC2)c2cc(Nc3ccnc(Cl)c3C#N)ccc21 [Example 11a, (S)-2-chloro-4-((4-((1-cyclopropyl-2-hydroxyethyl)amino)-1-methyl-2-oxo-1,2-dihydroquinolin-6-yl)amino)nicotinonitrile]
6.25				C[C@@H](Nc1cc(=O)n(C)c2ccc(Nc3nc(N4CCC4)ncc3Cl)cc12)C1CC1 [Example 26a, (R)-6-((2-(azetidin-1-yl)-5-chloropyrimidin-4-yl)amino)-4-((1-cyclopropylethyl)amino)-1-methylquinolin-2(1H)-one: formic acid (1:1)]
6.56				Cn1c(=O)cc(NCC2CC2)c2cc(Nc3cc(C(=O)O)nc(Cl)c3C#N)ccc21 [Example 9l, 6-chloro-5-cyano-4-((4-((cyclopropylmethyl)amino)-1-methyl-2-oxo-1,2-dihydroquinolin-6-yl)amino)picolinic acid]
6.35				C[C@@H](Nc1cc(=O)n(C)c2ccc(Nc3cc(N4CCC(C(=O)N(C)C)CC4)ncc3Cl)cc12)C1CC1 [Example 6i, (R)-1-(5-chloro-4-((4-((1-cyclopropylethyl)amino)-1-methyl-2-oxo-1,2-dihydroquinolin-6-yl)amino)pyridin-2-yl)-N,N-dimethylpiperidine-4-carboxamide]
6.13				COc1ncc(Cl)c(Nc2ccc3c(c2)c(N[C@H](CO)C2CC2)cc(=O)n3C)n1 [Example 11f, (S)-6-((5-chloro-2-methoxypyrimidin-4-yl)amino)-4-((1-cyclopropyl-2-hydroxyethyl)amino)-1-methylquinolin-2(1H)-one]
6.57			6.73	C[C@@H](Nc1cc(=O)n(C)c2ccc(Nc3ccnc(Cl)c3C#N)cc12)C(=O)NCCO [Example 3b, (R)-2-((6-((2-chloro-3-cyanopyridin-4-yl)amino)-1-methyl-2-oxo-1,2-dihydroquinolin-4-yl)amino)-N-(2-hydroxyethyl)propanamide]
